ChEMBL document CHEMBL1142398, “Chemical stability of the peroxide bond enables diversified synthesis of potent tetraoxane antimalarials” (J Med Chem, 2008)

Tests used:
[1] = Metabolic stability assessed as half life in human liver microsomes; assay type: ADME, Microsome
[2] = Metabolic stability assessed as half life in mouse liver microsomes; assay type: ADME, Microsome
Plasmodium berghei [3] = experiment: Antimalarial activity against Plasmodium berghei KBG173 infected CD1 mice (Mus musculus) at 320 mg/kg/day peroral dose as survival time after 3-5 days; assay type: functional; settings: route oral
Plasmodium berghei [4] = experiment: Antimalarial activity against Plasmodium berghei KBG173 infected CD1 mice (Mus musculus) at 80 mg/kg/day peroral dose as survival time after 3-5 days; assay type: functional; settings: route oral
Plasmodium berghei [5] = experiment: Antimalarial activity against Plasmodium berghei KBG173 infected CD1 mice (Mus musculus) at 20 mg/kg/day peroral dose as survival time after 3-5 days; assay type: functional; settings: route oral
Plasmodium falciparum [6] = experiment: microbe, parasite or virus in culture; settings: D6
Description: Antimalarial activity against Plasmodium falciparum D6

Plasmodium falciparum [7] = experiment: microbe, parasite or virus in culture; settings: W2
Description: Antimalarial activity against Plasmodium falciparum W2

Plasmodium falciparum [8] = experiment: microbe, parasite or virus in culture; settings: TM91C235
Description: Antimalarial activity against multidrug-resistant Plasmodium falciparum TM91C235

[9] = Antiproliferative activity against human HL60(TB) cells after 48 hrs; assay type: functional, HL-60(TB); settings: HL-60, 48 h
MOLT-4 = experiment: Antiproliferative activity against human MOLT4 cells after 48 hrs; assay type: functional; settings: MOLT-4, 48 h
SR = experiment: Antiproliferative activity against human SR cells after 48 hrs; assay type: functional
EKVX = experiment: Antiproliferative activity against human EKVX cells after 48 hrs; assay type: functional
HOP-92 = experiment: Antiproliferative activity against human HOP92 cells after 48 hrs; assay type: functional; settings: HOP-92, 48 h
NCI-H460 = experiment: Antiproliferative activity against human NCI-H460 cells after 48 hrs; assay type: functional; settings: NCI-H460, 48 h
SF-295 = experiment: Antiproliferative activity against human SF295 cells after 48 hrs; assay type: functional; settings: SF-295, 48 h
SF-539 = experiment: Antiproliferative activity against human SF539 cells after 48 hrs; assay type: functional; settings: SF-539, 48 h
U-251 = experiment: Antiproliferative activity against human U251 cells after 48 hrs; assay type: functional; settings: U-251, 48 h
LOX IMVI = experiment: Antiproliferative activity against human LOXIMVI cells after 48 hrs; assay type: functional
SK-MEL-2 = experiment: Antiproliferative activity against human SKMEL2 cells after 48 hrs; assay type: functional; settings: SK-MEL-2, 48 h
IGROV-1 = experiment: Antiproliferative activity against human IGROV1 cells after 48 hrs; assay type: functional; settings: IGROV-1, 48 h
786-0 = experiment: Antiproliferative activity against human 786-0 cells after 48 hrs; assay type: functional; settings: 786-0, 48 h
UO-31 = experiment: Antiproliferative activity against human UO31 cells after 48 hrs; assay type: functional; settings: UO-31, 48 h
PC-3 = experiment: Antiproliferative activity against human PC3 cells after 48 hrs; assay type: functional; settings: PC-3, 48 h
DU-145 = experiment: Antiproliferative activity against human DU145 cells after 48 hrs; assay type: functional; settings: DU-145, 48 h
NCI/ADR-RES = experiment: Antiproliferative activity against human NCI/ADR-RES cells after 48 hrs; assay type: functional
T47D = experiment: Antiproliferative activity against human T47D cells after 48 hrs; assay type: functional
CCRF-CEM = experiment: Antiproliferative activity against human CCRF-CEM cells after 48 hrs; assay type: functional
[10] = read-out: LC50 (the source's name)

CN(C)CCNC(=O)C1CCC2(CC1)OOC1(CCCCC1)OO2
half-life [1]: > 1 h | half-life [2]: > 1 h | Survival (Plasmodium berghei [3]): 17.4 days | Survival (Plasmodium berghei [4]): 7.6 days | Survival (Plasmodium berghei [5]): 7.2 days | IC50 (Plasmodium falciparum [6]): 11.2 nM | IC90 (Plasmodium falciparum [6]): 15.1 nM | IC50 (Plasmodium falciparum [7]): 9.72 nM | IC90 (Plasmodium falciparum [7]): 17.9 nM | IC50 (Plasmodium falciparum [8]): 7.24 nM | IC90 (Plasmodium falciparum [8]): 12.8 nM

CC(=O)O[C@H]1C[C@H]2[C@@H]([C@H](OC(C)=O)C[C@@H]3CC4(CC[C@@]32C)OOC2(CCCCC2)OO4)[C@@H]2CC[C@H]([C@H](C)CCCN=[N+]=[N-])[C@@]12C
IC50 (Plasmodium falciparum [6]): 8.6 nM | IC90 (Plasmodium falciparum [6]): 13.3 nM | IC50 (Plasmodium falciparum [7]): 6.3 nM | IC90 (Plasmodium falciparum [7]): 21.6 nM | IC50 (Plasmodium falciparum [8]): 13.9 nM | IC90 (Plasmodium falciparum [8]): 20.6 nM

COC(=O)C1CCC2(CC1)OOC1(CCCCC1)OO2
IC50 (Plasmodium falciparum [6]): 29.2 nM | IC90 (Plasmodium falciparum [6]): 83.9 nM | IC50 (Plasmodium falciparum [7]): 40.4 nM | IC90 (Plasmodium falciparum [7]): 62.5 nM | IC50 (Plasmodium falciparum [8]): 27 nM | IC90 (Plasmodium falciparum [8]): 110 nM

O=C(O)C1CCC2(CC1)OOC1(CCCCC1)OO2
IC50 (Plasmodium falciparum [6]): 429 nM | IC90 (Plasmodium falciparum [6]): 467 nM | IC50 (Plasmodium falciparum [7]): 413 nM | IC90 (Plasmodium falciparum [7]): 520 nM | IC50 (Plasmodium falciparum [8]): 411 nM | IC90 (Plasmodium falciparum [8]): 523 nM

COC(=O)CC[C@@H](C)[C@H]1CC[C@H]2[C@@H]3[C@H](OC(C)=O)C[C@@H]4CC5(CC[C@]4(C)[C@H]3C[C@H](OC(C)=O)[C@]12C)OOC1(CCCCC1)OO5
IC50 (Plasmodium falciparum [6]): 21.5 nM | IC50 (Plasmodium falciparum [7]): 17 nM

C[C@H](CCCO)[C@H]1CC[C@H]2[C@@H]3[C@H](O)C[C@@H]4CC5(CC[C@]4(C)[C@H]3C[C@H](O)[C@]12C)OOC1(CCCCC1)OO5
GI50 [9]: 150 nM | TGI [9]: 310 nM | CC50 [9, 10]: 620 nM | GI50 (MOLT-4): 180 nM | TGI (MOLT-4): 410 nM | CC50 (MOLT-4; [10]): 960 nM | GI50 (SR): 160 nM | TGI (SR): 340 nM | CC50 (SR; [10]): 720 nM | GI50 (EKVX): 140 nM | TGI (EKVX): 310 nM | CC50 (EKVX; [10]): 650 nM | GI50 (HOP-92): 140 nM | TGI (HOP-92): 320 nM | CC50 (HOP-92; [10]): 730 nM | GI50 (NCI-H460): 240 nM | TGI (NCI-H460): 620 nM | CC50 (NCI-H460; [10]): 2680 nM | GI50 (SF-295): 170 nM | TGI (SF-295): 330 nM | CC50 (SF-295; [10]): 660 nM | GI50 (SF-539): 170 nM | TGI (SF-539): 320 nM | CC50 (SF-539; [10]): 590 nM | GI50 (U-251): 210 nM | TGI (U-251): 460 nM | CC50 (U-251; [10]): 980 nM | GI50 (LOX IMVI): 20 nM | TGI (LOX IMVI): 30 nM | CC50 (LOX IMVI; [10]): 60 nM | GI50 (SK-MEL-2): 200 nM | TGI (SK-MEL-2): 390 nM | CC50 (SK-MEL-2; [10]): 730 nM | GI50 (IGROV-1): < 10 nM | TGI (IGROV-1): 10 nM | CC50 (IGROV-1; [10]): 60 nM | GI50 (786-0): 230 nM | TGI (786-0): 540 nM | CC50 (786-0; [10]): 2010 nM | GI50 (UO-31): 40 nM | TGI (UO-31): 170 nM | CC50 (UO-31; [10]): 610 nM | GI50 (PC-3): 290 nM | TGI (PC-3): 990 nM | CC50 (PC-3; [10]): 3410 nM | GI50 (DU-145): 110 nM | TGI (DU-145): 230 nM | CC50 (DU-145; [10]): 480 nM | GI50 (NCI/ADR-RES): 250 nM | TGI (NCI/ADR-RES): 590 nM | CC50 (NCI/ADR-RES; [10]): 4270 nM | GI50 (T47D): 330 nM | TGI (T47D): 930 nM | CC50 (T47D; [10]): 5300 nM | GI50 (CCRF-CEM): 100 nM | TGI (CCRF-CEM): 240 nM | CC50 (CCRF-CEM; [10]): 560 nM | IC50 (Plasmodium falciparum [6]): 130 nM | IC90 (Plasmodium falciparum [6]): 623 nM | IC50 (Plasmodium falciparum [7]): 109 nM | IC90 (Plasmodium falciparum [7]): 298 nM | IC50 (Plasmodium falciparum [8]): 166 nM | IC90 (Plasmodium falciparum [8]): 340 nM

CC(=O)OCCC[C@@H](C)[C@H]1CC[C@H]2[C@@H]3[C@H](OC(C)=O)C[C@@H]4CC5(CC[C@]4(C)[C@H]3C[C@H](OC(C)=O)[C@]12C)OOC1(CCCCC1)OO5
IC50 (Plasmodium falciparum [6]): 15.9 nM | IC90 (Plasmodium falciparum [6]): 28.4 nM | IC50 (Plasmodium falciparum [7]): 11.6 nM | IC90 (Plasmodium falciparum [7]): 26.3 nM | IC50 (Plasmodium falciparum [8]): 19.2 nM | IC90 (Plasmodium falciparum [8]): 29.3 nM

NC(=O)C1CCC2(CC1)OOC1(CCCCC1)OO2
IC50 (Plasmodium falciparum [6]): 24 nM | IC90 (Plasmodium falciparum [6]): 42.8 nM | IC50 (Plasmodium falciparum [7]): 20.2 nM | IC90 (Plasmodium falciparum [7]): 40.4 nM | IC50 (Plasmodium falciparum [8]): 27.2 nM | IC90 (Plasmodium falciparum [8]): 55.6 nM

C[C@@H]1CC[C@H]2[C@@H](C)C(=O)O[C@@H]3O[C@@]4(C)CC[C@@H]1[C@]32OO4 [ARTEMISININ]
IC50 (Plasmodium falciparum [6]): 9 nM | IC90 (Plasmodium falciparum [6]): 12.8 nM | IC50 (Plasmodium falciparum [7]): 6.7 nM | IC90 (Plasmodium falciparum [7]): 11.5 nM | IC50 (Plasmodium falciparum [8]): 13 nM | IC90 (Plasmodium falciparum [8]): 17.4 nM

CCN(CC)CCCC(C)Nc1ccnc2cc(Cl)ccc12 (stereo not given) [CHLOROQUINE]
IC90 (Plasmodium falciparum [6]): 17.6 nM | IC90 (Plasmodium falciparum [7]): 1020 nM | IC90 (Plasmodium falciparum [8]): 345 nM

O[C@@H](c1cc(C(F)(F)F)nc2c(C(F)(F)F)cccc12)[C@H]1CCCCN1 [MEFLOQUINE]
IC50 (Plasmodium falciparum [6]): 7.34 nM | IC90 (Plasmodium falciparum [6]): 19.5 nM | IC90 (Plasmodium falciparum [7]): 9.45 nM | IC50 (Plasmodium falciparum [8]): 22.4 nM | IC90 (Plasmodium falciparum [8]): 50.1 nM
